The text below walks through data of paper PMC7394103 (Frontiers in Pharmacology, 2020).

One series deals with JNK3. Also noted: method as in Schepetkin et al., 2019. The following applies: previously reported binding affinity; ref Schepetkin et al., 2019; cited from earlier work.
The target of the next series is JNK1. Also noted: method as in Schepetkin et al., 2019. As to conditions: previously reported binding affinity; ref Schepetkin et al., 2019; cited from earlier work.
Series [1] in a line: Cytotoxicity assay (CellTiter-Glo), THP-1. The series is classed as cell-based. The following applies: human, THP-1 cells; concentrations up to 50 µM; read-out: Cytotoxic effect THP-1 IC50. How it is done:
Cytotoxicity was analyzed using a CellTiter-Glo Luminescent Cell Viability Assay Kit (Promega), according to the manufacturer’s protocol. Briefly, cells were cultured at a density of 10^4 to 10^5 cells/well with different concentrations of test compounds (final concentration of DMSO was 1%) for the indicated periods of time (2, 12, or 24 h) at 37°C and 5% CO2. Following treatment, substrate was added to the cells, and the samples were analyzed with a Fluoroscan Ascent FL microplate reader.

Series [2] concerns MMP-3 secretion by SW982 cells. The series can be described thus: IL-1β-induced MMP-3 secretion by SW982 cells (ELISA). The series is classed as cell-based. As to conditions: Homo sapiens, 30 min compound, then 5 ng/ml IL-1β, 24 h. How it is done:
FLS, HUVEC, SW982, and THP-1 cells were plated in 96 well plates (10^4 to 10^5 cells/well) for 48 h before treatment. At 2 days post-confluency, the cells were serum-starved and washed twice (with the exception of THP-1 cell, which were not washed) with FBS-free medium prior to the addition of test compounds. The cells were incubated in the presence or absence of test compounds or DMSO (vehicle control) for 30 min at 37°C in a 5% CO2 atmosphere, IL-1β (5 ng/ml) was added, and the cells were incubated for an additional 24 h. Culture supernatants were collected and stored at –80°C. The levels of MMP-1 and MMP-3 were determined in culture supernatants using commercially available ELISA kits according to the manufacturer’s instructions (R&D System, Minneapolis, MN, USA). IL-6 levels were also determined in the supernatants using a human IL-6 ELISA kit (BD Biosciences, San Jose, CA, USA).

With `O=C1c2ccccc2-n2c1nc1ccccc1c2=O` [TRYP, indolo[2,1-b]quinazolin-6,12-dione], the “JNK3 Kd” value at JNK3 is “No binding”. Besides, the Kd – broadly, a measure of binding affinity in units of concentration – on JNK1 was 23 µM. Also, the IC50 (usually the concentration needed to halve the response being measured) is 18.2 ± 2.3 µM in series [1] and 8.7 ± 0.3 µM in series [2].
As for `O=c1c2ccccc2nc2n1-c1ccccc1/C2=N/O` [TRYP-Ox, tryptanthrin-6-oxime], the IC50 was over 50 µM in series [1] and 1.4 ± 0.1 µM in series [2].
